Results reported in US20240108734A1, “METHODS FOR TREATING AND AMELIORATING CANCER” (The Regents of the University of California, priority 2021, published 2024).
Entries after “also recorded” stand apart in the source; their conditions may differ.

Assays:
[1] = test system: beta-catenin; experiment: FACS analysis of activated beta-catenin in LSC engrafted mice; assay type: in vivo, human; details: LSC engrafted mice BM; compared with vehicle controls
Description: A lentiviral TCF/LEF reporter was utilized in human blast crisis CML cells, K562^1. Lentiviral pCDH backbone, ADAR1^WT, shControl, and shADAR1 K562 stable cell lines were transduced with pGreenFire1-TCF/LEF1 reporter (SBI) lentivirus for 72-hours and analyzed using CellTiter-Glo and One-Glo luciferase assays (Promega). Mean fluorescence intensity (MFI) of activated beta-catenin in human CD45^+ cells, HSCs (CD45^+CD34^+CD38^− Lin) and HPCs (CD45^+CD34^+[…] Lin) from engrafted mouse bone marrow and spleen was analyzed with a Miltenyi Biotec MACS Quant flow cytometer after staining with lineage, CD45, CD34 and CD38 (BD antibodies) as well as LIVE/DEAD stain, followed by 1% paraformaldehyde fixation, permeabilization with saponin, and staining with an anti-active beta-catenin antibody (Millipore cat #05-665, and BD custom conjugation) (see Supplementary Appendix).
To assess WNT/beta-catenin activation in response to ADAR1 upregulation, a lentiviral TCF/LEF reporter was utilized in human blast crisis CML cells, K562^26. […] A minimum of 50,000 cells were plated in duplicate, lysed according to the manufacturer's protocol, and measured using preloaded protocols on a Promega GloMax Discover Microplate Reader. One-Glo luciferase readouts were normalized to corresponding CellTiter-Glo values. […]

[2] = test system: ADAR1p150; experiment: ADAR1p150 expression in human CD45+ cells from treated BC CML mice; assay type: in vivo; details: p=0.016
Description: FIG. 5G. Boxplot depicting Log 2 (cpm) expression of ADAR1p150 by RNA-seq of human CD45^+ cells isolated from vehicle (red), mismatch control (blue) and imetelstat (green) treated BC CML mouse cells. The p-values from Student's t-tests are shown (Student's t-test: vehicle: p=0.337, imetelstat tx: p=0.016).

[3] = test system: normal cord blood CD34+ cells; experiment: Normal HSC (cord blood CD34+) engrafted mouse model; assay type: in vivo, mice
Method: FIG. 9A-B graphically illustrate data showing that normal HSC mouse xenograft models were established with normal cord blood CD34^+ cells by intrahepatic injection into neonatal Rag2^−/− c^−/− mice; FACS analysis of mice treated with either vehicle (0.9% NS), mismatch control (30 mg/kg) or imetelstat (30 mg/kg) followed by quantification of human CD45^+ cells in BM (FIG. 9A) and in spleen (FIG. 9B);

[4] = test system: TERT; experiment: RNA-seq of human CD45+ cells from treated BC CML mice; assay type: in vivo; details: surviving human CD45+ cells; imetelstat compared with vehicle; p<0.01
Method: For gene expression and RNA editing analysis, RNA editing sites were identified in REDIportal^34 (see the Supplementary Appendix). […] Gene Set Enrichment Analysis was performed with the Bioconductor package GSVA (see the Supplementary Appendix)^36. For in vitro and in vivo experiments, the Student's t-test was utilized to evaluate statistical significance of normally distributed data and Wilcoxon tests were utilized for non-normally distributed data with a p value of <0.05.
FastQC (Andrews, S. & Others. FastQC: a quality control tool for high throughput sequence data. (2010) was used to perform quality control on raw fastq files. Sequencing reads were aligned to the human genome (hg19) using the STAR v2.5.1a aligner^19. RSEM^20 v1.3.0 and GENCODE annotation (genocode.v19.annotation.gtf) were used for read and transcript quantification, and R BioConductor packages edgeR^21 and Limma^22 were used to implement the limma-voom^23 method for differential expression analysis at both the gene and transcript levels. The experimental design was modeled upon disease and tissue type (˜0+disease; ˜0+tissue; ˜0+disease+tissue). Significance was defined by using an adjusted p-value cut-off of 0.05 after multiple testing correction using a moderated t-statistic in Limma. […] Gene Set Enrichment Analysis was performed with the Bioconductor package GSVA^25.
FIG. 5C. […]

Substance: imetelstat
- activated beta-catenin expression / activity by FACS [1]: significant reduction; also recorded: significantly reduced
- ADAR1p150 expression [2]: significantly reduced
- effect on normal hematopoietic stem cells ([3]; at doses reducing malignant RNA editing): spared normal hematopoietic stem cells
- normal cord blood engraftment (human CD45+ cells) ([3]; imetelstat 30 mg/kg vs vehicle and mismatch control, BM and spleen): no significant decrease; also recorded: does not reduce
- TERT expression by RNA-seq [4]: reduction
